This is an account of results in patent US10507208B2, “Compositions, packaged pharmaceuticals, and methods of using hedgehog pathway modulators for the sensitization of resistant tumors” (priority 2015, dated 2019).

Type in all cases: cell-based
Experiment [1] has as its system Kelly (neuroblastoma) cells. Nature of the experiment: MTT assay, sensitization to vincristine or docetaxel in Kelly cells. The settings on record: vincristine or docetaxel plus sensitizer at 10, 1 or 0.1 micromolar, versus chemotherapy alone, FIGS. 10A-10H. The method, then:
(§1) Cancer cells grown in vitro are treated with chemotherapy drugs alone or simultaneously with a hedgehog pathway modulator, including itraconazole. The difference in cell death between cells treated with chemotherapy drugs alone or in simultaneous treatment with the hedgehog pathway modulators determines the degree of synergistic killing effect of the combination therapy.
(§2) Cell culture: The H295 cell line was grown in DMEM (Dulbecco's Modified Eagles Medium), supplemented with insulin, transferring, and selenium, 10% Fetal bovine serum, and gentamicin. The Kelly cell line was grown in DMEM, supplemented with 10% Fetal bovine serum, and gentamicin. Cell-based experiments were conducted in a 37 degree incubator supplemented with 5% carbon dioxide.
(§3) In vitro Pharmacology: H295 cells were plated in a 96-well dish at a density of 10000 cells per well and Kelly cells were plated at a density of 2000 cells per well. After 16 hours, cells were treated with 2-fold dilutions of vincristine (VCR) or docetaxel (DTX).
(§4) MTT Assay: Drug containing media from all of the dishes were discarded and MTT solution was added at a concentration of 5 micrograms per ml. The dishes were returned to the incubator for 4 hours.
On the technique in general: Tetrazolium dyes change colour on reduction, which living cells bring about.

For experiment [2], the system named is H295 (adrenal cortical carcinoma) cells. Nature of the experiment: MTT assay, sensitization to vincristine or docetaxel in H295 cells. The settings on record: vincristine or docetaxel plus sensitizer at 10, 1 or 0.1 micromolar, versus chemotherapy alone, FIGS. 10A-10H. The method, then: as §1, §2, §3, §4
Experiment [3] concerns HeLa (cervical cancer) cells. Nature of the experiment: MTT assay, sensitization to vincristine or docetaxel in HeLa cells. Conditions: HeLa cells (pre-exposed to chemotherapy, second-line model); sensitizer 10, 1 or 0.1 micromolar; FIGS. 10I-10L.

Take `CC1=C2C[C@H]3[C@@H](CC=C4C[C@@H](O)CC[C@@]43C)[C@@H]2CC[C@]12O[C@@H]1C[C@H](C)CN[C@H]1[C@H]2C` [cyclopamine]: the “concentration of chemotherapy necessary to stop proliferation as well as kill half of the amount of cells (IC50)” value in experiment [1] and in experiment [2] was “remains less than concentration of chemotherapy alone” in each case. Also, the “sensitization to vincristine and docetaxel” value in experiment [3] is on record as “did not respond”.
